Experiments:
[1] = target: Glutamate carboxypeptidase 2 (Homo sapiens, UniProt Q04609); assay: Inhibition of PSMA in human LNCaP cell lysates incubated for 2 hrs in presence of N-acetylaspartylglutamate by Amplex red glutamic acid/glutamate oxidase assay
[2] = Drug distribution in spleen of BALB/c nude mouse xenografted with human 22Rv1 cells at 10 nmol, iv measured 1 to 24 hrs after post dose by fluorescence imaging method; assay type: ADME, organism-based; conditions: in vivo
[3] = Drug distribution in heart of BALB/c nude mouse xenografted with human 22Rv1 cells at 10 nmol, iv measured 1 to 24 hrs after post dose by fluorescence imaging method; assay type: ADME, organism-based; conditions: in vivo
[4] = Drug distribution in liver of BALB/c nude mouse xenografted with human 22Rv1 cells at 10 nmol, iv measured 1 to 24 hrs after post dose co-treated with 1 umol DCIBZL by fluorescence imaging method; assay type: ADME, organism-based; conditions: in vivo
[5] = Drug distribution in muscle of BALB/c nude mouse xenografted with human 22Rv1 cells at 10 nmol, iv measured 1 to 24 hrs after post dose by fluorescence imaging method; assay type: ADME, organism-based, Muscle tissue; conditions: in vivo
[6] = Drug distribution in tumor of BALB/c nude mouse xenografted with human 22Rv1 cells at 10 nmol, iv measured 1 to 24 hrs after post dose co-treated with 1 umol DCIBZL by fluorescence imaging method; assay type: ADME, organism-based, Neoplasm; conditions: in vivo
[7] = Drug distribution in liver of BALB/c nude mouse xenografted with human 22Rv1 cells at 10 nmol, iv measured 1 to 24 hrs after post dose by fluorescence imaging method; assay type: ADME, organism-based; conditions: in vivo
[8] = Drug distribution in lung of BALB/c nude mouse xenografted with human 22Rv1 cells at 10 nmol, iv measured 1 to 24 hrs after post dose by fluorescence imaging method; assay type: ADME, organism-based; conditions: in vivo
[9] = Drug distribution in tumor of BALB/c nude mouse xenografted with human 22Rv1 cells at 10 nmol, iv measured 1 to 24 hrs after post dose by fluorescence imaging method; assay type: ADME, organism-based, Neoplasm; conditions: in vivo

Glutamate carboxypeptidase 2, sequence (Q04609 whole entry): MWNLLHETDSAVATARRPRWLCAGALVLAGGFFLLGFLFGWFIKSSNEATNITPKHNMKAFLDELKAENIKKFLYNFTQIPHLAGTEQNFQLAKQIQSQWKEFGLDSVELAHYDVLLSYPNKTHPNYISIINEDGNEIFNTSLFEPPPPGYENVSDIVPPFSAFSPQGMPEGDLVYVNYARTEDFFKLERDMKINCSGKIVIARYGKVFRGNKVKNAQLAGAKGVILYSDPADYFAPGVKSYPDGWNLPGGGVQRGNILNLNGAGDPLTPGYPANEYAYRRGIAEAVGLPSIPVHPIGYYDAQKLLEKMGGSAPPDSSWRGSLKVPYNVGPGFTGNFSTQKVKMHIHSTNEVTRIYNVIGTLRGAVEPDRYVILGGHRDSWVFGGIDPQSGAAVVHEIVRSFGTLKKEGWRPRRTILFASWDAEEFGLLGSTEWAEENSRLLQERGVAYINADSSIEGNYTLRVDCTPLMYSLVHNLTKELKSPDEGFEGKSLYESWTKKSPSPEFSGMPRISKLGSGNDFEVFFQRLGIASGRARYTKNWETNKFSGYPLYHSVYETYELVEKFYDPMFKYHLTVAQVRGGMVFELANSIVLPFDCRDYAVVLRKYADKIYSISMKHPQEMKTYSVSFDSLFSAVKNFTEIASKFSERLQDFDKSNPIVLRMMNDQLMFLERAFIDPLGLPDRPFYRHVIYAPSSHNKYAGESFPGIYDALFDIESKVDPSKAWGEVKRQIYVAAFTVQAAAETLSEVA

| Ki [1] | Drug uptake [2] | Drug uptake [3] | Drug uptake [4] | Drug uptake [5] | Drug uptake [6] | Drug uptake [7] | Drug uptake [8] | Drug uptake [9] | SMILES |
| --- | --- | --- | --- | --- | --- | --- | --- | --- | --- |
| 0.58 nM | Not Active | Not Active | Not Active | Not Active | Not Active | Active | Not Active | Active | CCN1/C(=C/C=C/C=C/C2=[N+](CCCCCC(=O)NCCCC(=O)NCCCC[C@H](NC(=O)N[C@@H](CCC(=O)O)C(=O)O)C(=O)O)c3ccc4c(S(=O)(=O)[O-])cc(S(=O)(=O)O)cc4c3C2(C)C)C(C)(C)c2c1ccc1c(S(=O)(=O)O)cc(S(=O)(=O)O)cc21 |
| 0.38 nM | Not Active | Not Active |  | Not Active |  | Active | Not Active | Active | CCN1/C(=C/C=C/C=C/C2=[N+](CCCCCC(=O)NCCCN(CC(=O)Nc3ccc(C(=O)NCCCC[C@H](NC(=O)N[C@@H](CCC(=O)O)C(=O)O)C(=O)O)cc3)CC(=O)Nc3ccc(C(=O)NCCCC[C@H](NC(=O)N[C@@H](CCC(=O)O)C(=O)O)C(=O)O)cc3)c3ccc4c(S(=O)(=O)[O-])cc(S(=O)(=O)O)cc4c3C2(C)C)C(C)(C)c2c1ccc1c(S(=O)(=O)O)cc(S(=O)(=O)O)cc21 |
| 0.14 nM | Not Active | Not Active | Not Active | Not Active | Not Active | Not Active | Not Active | Active | CCN1/C(=C/C=C/C=C/C2=[N+](CCCCCC(=O)NCCCC(=O)N[C@@H](CCC(=O)NCCCC[C@H](NC(=O)N[C@@H](CCC(=O)O)C(=O)O)C(=O)O)C(=O)NCCCC[C@H](NC(=O)N[C@@H](CCC(=O)O)C(=O)O)C(=O)O)c3ccc4c(S(=O)(=O)[O-])cc(S(=O)(=O)O)cc4c3C2(C)C)C(C)(C)c2c1ccc1c(S(=O)(=O)O)cc(S(=O)(=O)O)cc21 |

From ChEMBL document CHEMBL4184252, “Synthesis of novel multivalent fluorescent inhibitors with high affinity to prostate cancer and their biological evaluation” (Bioorg Med Chem Lett, 2018)
